Results on 18 molecules are retold here after US4194055A, “15,16-dioxy prostenoic acids and esters” (American Cyanamid Company, priority 1978, dated 1980).

One may read the ED50 as the dose that gives a 50% effect, or the effect in half of the subjects.

Each structure is given as a SMILES string.

Experiment [1] relates to basal gastric acid secretion. Kind of experiment: Inhibition of gastric acid secretion in the acute gastric fistula rat. Particulars: intraduodenal. The format is in vivo, Female Sprague-Dawley rats. The procedure: The compounds of this invention are also useful as inhibitors of gastric acid secretion and peptic ulcer formation and may be used for the treatment of gastric hyperacidity, gastric erosion, and peptic ulcer. Inhibition of basal gastric acid secretion can be determined by the following procedure.
Female Sprague-Dawley rats weighing 140-160 grams are fasted in individual cages for 18-24 hours. The rats are then lightly anesthetized with ether and their front teeth extracted to avoid destruction of the plastic cannula. A midline incision is then made and the stomach and duodenum exposed. A flanged polyvinyl tube is inserted into the fundic portion of the stomach and secured with a purse string suture line using 4-O Mersilene. The rat is then dosed by injection of the compound into the duodenum (1.0 ml. per 100 gram body weight). After dosing, the abdominal wall and skin are closed using metal wound clips. The rat is replaced in a cage containing a longitudinal slit to allow the polyvinyl tube to hang freely. An 8 ml. plastic collecting tube is attached to the flanged cannula and hangs freely below the cage. The first 30 minute sample is discarded designating this time as zero. The collecting tube is attached again and samples removed at the end of 60 and 120 minutes. The hourly samples are then transferred to a 15 ml. centrifuge and centrifuged for 5-10 minutes. Total and sediment volume are then recorded with the supernatant volume being used as volume of secretion. A 1 ml. or less aliquot is then removed and placed in a 50 ml. beaker containing 10 ml. of distilled water. This sample is then titrated using 0.01 N NaOH to pH 7.0 using a Beckman zeromatic pH meter. Volume, titratable acidity (meq/L) and total acid output (ueg/hour) are recorded. Percent inhibition is determined by comparison with the appropriate control. Groups of three rats were used for preliminary testing, and groups of six rats were used for dose-response evaluations. All compounds are administered in a vehicle consisting of 0.5% methocel, 0.4% tween 80, and saline at a constant volume of 1 ml./100 gram rat. Samples are dispersed by sonification. Percent inhibition is calculated on basis of concurrent vehicle control.
In Table B which follows is given the effect on total acid output after 60 minutes (response A) and 120 minutes (response B) for various doses of representative compounds of this invention.

For experiment [2], the system named is bronchospasms elicited by intravenous injections of 5-hydroxytryptamine. The experiment is described as follows: Bronchodilator activity (Konzett assay) against 5-hydroxytryptamine. It is filed as in vivo, guinea pigs. Conditions: Cavia porcellus; three logarithmic cummulative intravenous doses; spasmogen 5-hydroxytryptamine i.v.; read-out: Bronchodilator Activity (Konzett Assays) ED50, Spasmogenic Agent 5-Hydroxytryptamine. On the procedure: (§1) The compounds of this invention are useful as bronchodilators for the treatment of asthma and chronic bronchitis. Bronchodilator activity is determined in guinea pigs against bronchospasms elicited by intravenous injections of 5-hydroxytryptamine, histamine or acetylcholine by the Konzett procedure. [See J. Lulling, P. Lievens, F. El Sayed and J. Prignot, Arzneimittel-Forschung, 18, 955 (1968).]
(§2) In Table A which follows bronchodilator activity for representative compounds of this invention against one or more of three spasmogenic agents is expressed in an ED50 determined from the results obtained with three logarithmic cummulative intravenous doses.

Experiment [3] concerns bronchospasms elicited by intravenous injections of histamine. The experiment is described as follows: Bronchodilator activity (Konzett assay) against histamine. The format is in vivo, guinea pigs. Particulars: Cavia porcellus; three logarithmic cummulative intravenous doses; spasmogen histamine i.v.; read-out: Bronchodilator Activity (Konzett Assays) ED50, Spasmogenic Agent Histamine. The procedure: as §1, §2

Experiment [4] relates to Mean arterial blood pressure. Kind of experiment: Hypotensive activity in anesthetized normotensive rats. The format is in vivo, Royalhart, Wistar strain, male. Conditions: Rattus norvegicus, iv, infused over one minute, read-out: % Decrease Mean Arterial Blood Pressure. On the procedure: The animals used are Royalhart, Wistar strain, male, normotensive rats weighing 250-300 g. The rats are anesthetized using a 100 mg./ml. saline solution of urethane at a rate of 900 mg./kg. intraperitoneally.
The instrumentation used in a Brush model 260 recorder, Statham mode P23Db pressure transducer and Harvard model 940 infusion pump with a 6 cc syringe at speed 4.
The left carotid artery is cannulated with polyethylene tubing for arterial blood pressure. The left external juglar vein is cannulated with polyethylene tubing for […] the test compound is infused over a one minute period in a volume of 0.5 ml., […] (ethanol, 1 M NaHCO3 or saline) and then flushed with 0.4 ml. of saline.
Mean arterial blood pressure is then measured in two test animals per compound against a control value.

Experiment [5] has as its system bronchospasms elicited by intravenous injections of acetylcholine. Kind of experiment: Bronchodilator activity (Konzett assay) against acetylcholine. The format is in vivo, guinea pigs. Particulars: Cavia porcellus; three logarithmic cummulative intravenous doses; spasmogen acetylcholine i.v.; read-out: Bronchodilator Activity (Konzett Assays) ED50, Spasmogenic Agent Acetylcholine. The procedure: as §1, §2

In experiment [6] the test system is basal gastric acid secretion. The experiment is described as follows: Inhibition of gastric acid secretion in the acute gastric fistula rat. It is filed as in vivo, Female Sprague-Dawley rats. Conditions: oral.

`CCCCC(OC)C(O)/C=C/C1CCC(=O)C1CCCCCCC(=O)OCC` (mixture of isomers) [all racemic erythro ethyl 9-oxo-15-hydroxy-16-methoxy-13-trans-prostenoate]: in experiment [1] (10 mg./kg.), the “% Inhibition of Total Acid Output After 60 min.” value stood at 43% and the “% Inhibition of Total Acid Output After 120 min.” value stood at 0%.
Take `CCCCC(O)C(O)/C=C/C1CCC(=O)C1CCCCCCC(=O)O` (mixture of isomers) [all racemic erythro-9-oxo-15,16-dihydroxy-13-trans-prostenoic acid]: the values for the ED50 in experiment [2] and in experiment [3] were 0.537 mg/kg and 0.01 mg/kg, respectively.
Turning to `CCCCC1OC(C)(C)OC1/C=C/C1C(OC2CCCCO2)CC(=O)C1C/C=C\CCCC(=O)O` (mixture of isomers) [d,l-erythro-9-oxo-11α-tetrahydropyranyloxy-15,16-isopropylidenedioxy-5-cis,13-trans-prostadienoic acid], in experiment [1] (10 mg./kg.), the “% Inhibition of Total Acid Output After 60 min.” value is recorded as 55% and the “% Inhibition of Total Acid Output After 120 min.” value is given as 29%.
On to `CCCCC1OC(C)(C)OC1/C=C/C1CCC(=O)C1CCCCCCC(=O)O` (mixture of isomers) [d,l-erythro-9-oxo-15,16-isopropylidenedioxy-13-trans-prostenoic acid], for which, in experiment [4] (1.3 mg./kg.), the inhibition in vivo at 1.3 mg/kg came out at 63%. For the same molecule, the inhibition in vivo at 2.5 mg/kg in experiment [4] (2.5 mg./kg.) came out at 21%.
For the molecule `CCCCC(O)C(O)CCC1CCC(=O)C1CCCCCCC(=O)O` (racemic) [all racemic erythro-9-oxo-15,16-dihydroxy-prostanoic acid], in experiment [1] (10 mg./kg.), the “% Inhibition of Total Acid Output After 60 min.” value amounted to 56% and the “% Inhibition of Total Acid Output After 120 min.” value was 46%.
With `CCCC[C@H](OC)[C@H](O)/C=C/[C@H]1C=CC(=O)[C@@H]1C/C=C\CCCC(=O)O` (relative stereo) [d1-erythro-9-oxo-15-hydroxy-16-methoxy-5-cis,10,13-trans-prostatrienoic acid], in experiment [4], the inhibition in vivo at 1.9 mg/kg is 26%.
Turning to `CCCC[C@H](OC)[C@H](O)/C=C/[C@H]1[C@H](O)CC(=O)[C@@H]1C/C=C\CCCC(=O)O` (relative stereo) [d,1-erythro-9-oxo-11α,15-dihydroxy-16-methoxy-5-cis,13-trans-prostadienoic acid], the inhibition in vivo at 1.8 mg/kg in experiment [4] (1.8 mg./kg.) came out at 44%.
As for `CCCC[C@H](OC)[C@H](O)/C=C/[C@H]1CCC(=O)[C@@H]1CCCCCCC(=O)O` (relative stereo) [d,1-erythro-9-oxo-15-hydroxy-16-methoxy-13-trans-prostenoic acid], the ED50 is greater than 3.2 mg/kg in experiment [3] and greater than 0.32 mg/kg in experiment [5]. For the same molecule, the inhibition in vivo at 2.1 mg/kg in experiment [4] was found to be 29%.
Take `CCCC[C@@H](O)[C@@H](O)/C=C/[C@H]1CCC(=O)[C@@H]1CCCCCCC(=O)OCC` (relative stereo) [d,l-erythro ethyl 9-oxo-15-epi-16-dihydroxy-13-trans-prostenoate]: the inhibition in vivo at 2.4 mg/kg in experiment [4] was 33%.
With `CCCC[C@@H](OC)[C@@H](O)/C=C/[C@H]1CCC(=O)[C@@H]1CCCCCCC(=O)OCC` (relative stereo) [d,l-erythro ethyl 9-oxo-15-epi-hydroxy-16-methoxy-13-trans-prostenoate], the inhibition in vivo at 2.3 mg/kg in experiment [4] (2.3 mg./kg.) amounted to 9%.
Regarding `CCCC[C@H](O)[C@H](O)/C=C/[C@H]1CCC(=O)[C@@H]1CCCCCCC(=O)O` (relative stereo) [d,l-erythro-9-oxo-15,16-dihydroxy-13-trans-prostenoic acid], in experiment [1] (2.5 mg./kg.), the “% Inhibition of Total Acid Output After 60 min.” value was 77% and the “% Inhibition of Total Acid Output After 120 min.” value stood at 76%. For the same molecule, the inhibition in vivo at 2.1 mg/kg in experiment [4] was determined as 23%.
Turning to `CCCC[C@@H](O)[C@@H](O)/C=C/[C@H]1CCC(=O)[C@@H]1CCCCCCC(=O)O` (relative stereo) [d,l-erythro-9-oxo-15-epi,16-dihydroxy-13-trans-prostenoic acid], in experiment [1] (10 mg./kg.), the “% Inhibition of Total Acid Output After 60 min.” value is on record as 0% and the “% Inhibition of Total Acid Output After 120 min.” value worked out at 42%.
On to `CCCC[C@H](O)[C@H](O)/C=C/[C@H]1[C@H](O)CC(=O)[C@@H]1C/C=C\CCCC(=O)O` (relative stereo) [dl-erythro-9-oxo-11α,15,16-trihydroxy-5-cis,13-trans-prostadienoic acid], for which the values for the ED50 in experiment [2], in experiment [3] and in experiment [5] were 0.024 mg/kg, 0.0098 mg/kg and 0.013 mg/kg, respectively. Besides, the “% Inhibition of Total Acid Output After 60 min.” value turned out to be 98% in experiment [1] (10 mg./kg.) and 86% in experiment [6] (5 mg./kg.). The results for the “% Inhibition of Total Acid Output After 120 min.” value in experiment [1] (10 mg./kg.) and in experiment [6] (5 mg./kg.) were 55% and 89%, respectively. Besides, the inhibition in vivo at 0.1 mg/kg in experiment [4] (0.1 mg./kg.) turned out to be 6%.
Turning to `CCCC[C@@H](O)[C@@H](O)/C=C/[C@H]1[C@H](O)CC(=O)[C@@H]1C/C=C\CCCC(=O)O` (relative stereo) [dl-erythro-9-oxo-11α,15-epi,16-trihydroxy-5-cis,13-trans-prostadienoic acid], the ED50 in experiment [2] was found to be 1.28 mg/kg; in experiment [5], 2.43 mg/kg. The “% Inhibition of Total Acid Output After 60 min.” value in experiment [1] (10 mg./kg.) came out at 100%; in experiment [6] (10 mg./kg.), 66%. In addition, the results for the “% Inhibition of Total Acid Output After 120 min.” value in experiment [1] (10 mg./kg.) and in experiment [6] (10 mg./kg.) were 82% and 65%, respectively. In addition, the inhibition in vivo at 2 mg/kg in experiment [4] (2.0 mg./kg.) amounted to 57%.
Regarding `CCCC[C@@H](OC)[C@@H](O)/C=C/[C@H]1[C@H](O)CC(=O)[C@@H]1C/C=C\CCCC(=O)O` (relative stereo) [dl-erythro-9-oxo-11α,15-epi-15-hydroxy-16-methoxy-5-cis,13-trans-prostadienoic acid], in experiment [4], the inhibition in vivo at 1.9 mg/kg stood at 19%.
`CCCC[C@@H](O)[C@@H](O)/C=C/[C@H]1C=CC(=O)[C@@H]1C/C=C\CCCC(=O)O` (relative stereo) [dl-erythro-9-oxo-15-epi, 16-dihydroxy-5-cis,10,13-trans-prostatrienoic acid]: in experiment [4], the inhibition in vivo at 2.1 mg/kg was found to be 54%.
Regarding `CCCC[C@@H](OC)[C@@H](O)/C=C/[C@H]1CCC(=O)[C@@H]1CCCCCCC(=O)O` (relative stereo) [dl-erythro-9-oxo-15-epi-hydroxy-16-methoxy-13-trans-prostenoic acid], the results for the ED50 in experiment [2], in experiment [3] and in experiment [5] were 7.99 mg/kg, greater than 3.2 mg/kg and greater than 3.2 mg/kg, respectively. Also, the inhibition in vivo at 2.4 mg/kg in experiment [4] worked out at 18%.
Take `CCCC[C@@H](O)[C@@H](O)/C=C/[C@@H]1[C@@H](C/C=C\CCCC(=O)O)[C@@H](O)C[C@H]1O` (relative stereo) [dl-erythro-9α,11α,15-epi,16-tetrahydroxy-5-cis,13-trans-prostadienoic acid]: the inhibition in vivo at 2.2 mg/kg in experiment [4] (2.2 mg./kg.) was determined as 20%.
